Type in all cases: functional, cell-based
One assay relates to Z-138. The assay can be described thus: Antiproliferative activity against human Z138 cells.
In a further assay the test system is HCT-116. The assay can be described thus: Antiproliferative activity against human HCT116 cells.
A short description of assay [1]: Antiproliferative activity against human HAP1 cells.
A further assay relates to NCI-H460. The assay can be described thus: Antiproliferative activity against human NCI-H460 cells.
Assay [2] is described as follows: Antiproliferative activity against human DND41 cells.
In the next assay the test system is CAPAN-1. As to the kind of experiment: Antiproliferative activity against human Capan1 cells.
The subject of another assay is K562. As to the kind of experiment: Antiproliferative activity against human K562 cells.
Another assay concerns HL-60. The assay can be described thus: Antiproliferative activity against human HL60 cells.
[3] abbreviates: Homo sapiens, Z-138, read-out: IC50.
[4] abbreviates: Homo sapiens, HCT-116, read-out: IC50.
[5] abbreviates: Homo sapiens, HAP1, read-out: IC50.
The mark [6] stands for this setting: Homo sapiens, NCI-H460, read-out: IC50.
[7] abbreviates: Homo sapiens, DND41, read-out: IC50.
The mark [8] stands for this setting: Homo sapiens, CAPAN-1, read-out: IC50.
The mark [9] stands for this setting: Homo sapiens, K562, read-out: IC50.
[10] abbreviates: Homo sapiens, HL-60, read-out: IC50.

In ChEMBL document CHEMBL4392859, “Xylo-C-nucleosides with a pyrrolo[2,1-f][1,2,4]triazin-4-amine heterocyclic base: Synthesis and antiproliferative properties” (Bioorg Med Chem Lett, 2019) one finds IC50 data, which are given here for 4 molecules.

The IC50 is the concentration at which inhibition is half-maximal.

With `CC(=O)O[C@@]12CO[C@@H]1C[C@H](O)[C@@]1(C)C(=O)[C@H](O)C3=C(C)[C@@H](OC(=O)[C@H](O)[C@@H](NC(=O)OC(C)(C)C)c4ccccc4)C[C@@](O)([C@@H](OC(=O)c4ccccc4)[C@H]21)C3(C)C` [DOCETAXEL ANHYDROUS], the concentration for half-maximal inhibition (IC50) was 9 nM with Z-138 (setting [3]); 4 nM in the assay with HCT-116 (setting [4]); 18 nM in assay [1] (setting [5]); 7 nM in the assay on NCI-H460 (setting [6]); 14 nM in assay [2] (setting [7]); 19 nM in the assay with CAPAN-1 (setting [8]). In addition, the values for the concentration for half-maximal inhibition (IC50) in the assay with K562 (setting [9]) and in the assay on HL-60 (setting [10]) were 16 nM and 47 nM, respectively.

`N#C[C@@]1(c2ccc3c(N)ncnn23)O[C@H](CO)[C@H](O)[C@H]1O`: the IC50 result (in the assay on Z-138 (z-138); in the assay with HCT-116 (hct-116); in assay [1]; in the assay with NCI-H460 (nci-h460); in assay [2]; in the assay with CAPAN-1 (capan-1)) was “Not Active” throughout. The IC50 result in the assay on K562 (k562) and with HL-60 (hl-60) was “Not Active” in each case.

In the case of `Nc1ncnn2c([C@@H]3O[C@H](CO)[C@H](O)[C@H]3O)ccc12`, the IC50 with Z-138 (setting [3]) is 4000 nM; in the assay on HCT-116 (setting [4]), 8400 nM; in assay [1] (setting [5]), 9300 nM; with NCI-H460 (setting [6]) it was 2000 nM; in assay [2] (setting [7]), 2800 nM; with CAPAN-1 (setting [8]) it was 2700 nM. Also, the concentration for half-maximal inhibition (IC50) in the assay on K562 (setting [9]) was determined as 4300 nM; with HL-60 (setting [10]) it was 1900 nM.

`CN[C@@H]1C[C@H]2O[C@@](C)([C@@H]1OC)n1c3ccccc3c3c4c(c5c6ccccc6n2c5c31)C(=O)NC4` [STAUROSPORINE]: the IC50 in the assay with Z-138 (setting [3]) was determined as 18 nM; in the assay with HCT-116 (setting [4]) it was 37 nM; in assay [2] (setting [7]), 23 nM; with CAPAN-1 (setting [8]) it was 48 nM; with K562 (setting [9]), 83 nM; with HL-60 (setting [10]), 19 nM.
